Earlier results as cited in patent US6441041B1, “(-)-hydroxycitric acid for the prevention of osteoporosis” (priority 2001, dated 2002).

Experiments:
[1] = test system: female Zucker lean (Fa/−) rats; settings: lean animals
[2] = test system: female Zucker obese (Fa/fa) rats; settings: obese animals

## O=C([O-])CC(O)(C(=O)[O-])C(O)C(=O)[O-].[Na+].[Na+].[Na+] (stereo not drawn) [Tri-NaHCA, trisodium (−)-hydroxycitrate]
[1]
  Carcass protein and ash/mineral content in comparison with control: increased carcass protein and ash/mineral content
[2]
  Carcass protein and ash/mineral content in comparison with control: increased carcass protein and ash/mineral content
